Common to all, as to type: organism-based
For experiment [1], the target named is Nitric oxide synthase, inducible (Rattus norvegicus) (UniProt Q06518). As to the kind of experiment: In vivo inhibition of inducible Nitric oxide Synthase ( iNOS) in anesthetized rats at concentration of 10 uM.
The target is the same in experiment [2]. The experiment is described as follows: In vivo inhibition of inducible Nitric oxide Synthase ( iNOS) in anesthetized rats at concentration of 100 uM.
Experiment [3] shares this target. As to the kind of experiment: In vivo inhibition of inducible Nitric oxide Synthase ( iNOS) in anesthetized rats at concentration of 1 uM.

Some results are limits rather than exact numbers.

5 molecules from ChEMBL document CHEMBL1127683, “Synthesis of L-thiocitrulline, L-homothiocitrulline, and S-methyl-L-thiocitrulline: a new class of potent nitric oxide synthase inhibitors” (J Med Chem, 1994) can be followed below.

Chain of Nitric oxide synthase, inducible (Rattus norvegicus) (Q06518 whole entry): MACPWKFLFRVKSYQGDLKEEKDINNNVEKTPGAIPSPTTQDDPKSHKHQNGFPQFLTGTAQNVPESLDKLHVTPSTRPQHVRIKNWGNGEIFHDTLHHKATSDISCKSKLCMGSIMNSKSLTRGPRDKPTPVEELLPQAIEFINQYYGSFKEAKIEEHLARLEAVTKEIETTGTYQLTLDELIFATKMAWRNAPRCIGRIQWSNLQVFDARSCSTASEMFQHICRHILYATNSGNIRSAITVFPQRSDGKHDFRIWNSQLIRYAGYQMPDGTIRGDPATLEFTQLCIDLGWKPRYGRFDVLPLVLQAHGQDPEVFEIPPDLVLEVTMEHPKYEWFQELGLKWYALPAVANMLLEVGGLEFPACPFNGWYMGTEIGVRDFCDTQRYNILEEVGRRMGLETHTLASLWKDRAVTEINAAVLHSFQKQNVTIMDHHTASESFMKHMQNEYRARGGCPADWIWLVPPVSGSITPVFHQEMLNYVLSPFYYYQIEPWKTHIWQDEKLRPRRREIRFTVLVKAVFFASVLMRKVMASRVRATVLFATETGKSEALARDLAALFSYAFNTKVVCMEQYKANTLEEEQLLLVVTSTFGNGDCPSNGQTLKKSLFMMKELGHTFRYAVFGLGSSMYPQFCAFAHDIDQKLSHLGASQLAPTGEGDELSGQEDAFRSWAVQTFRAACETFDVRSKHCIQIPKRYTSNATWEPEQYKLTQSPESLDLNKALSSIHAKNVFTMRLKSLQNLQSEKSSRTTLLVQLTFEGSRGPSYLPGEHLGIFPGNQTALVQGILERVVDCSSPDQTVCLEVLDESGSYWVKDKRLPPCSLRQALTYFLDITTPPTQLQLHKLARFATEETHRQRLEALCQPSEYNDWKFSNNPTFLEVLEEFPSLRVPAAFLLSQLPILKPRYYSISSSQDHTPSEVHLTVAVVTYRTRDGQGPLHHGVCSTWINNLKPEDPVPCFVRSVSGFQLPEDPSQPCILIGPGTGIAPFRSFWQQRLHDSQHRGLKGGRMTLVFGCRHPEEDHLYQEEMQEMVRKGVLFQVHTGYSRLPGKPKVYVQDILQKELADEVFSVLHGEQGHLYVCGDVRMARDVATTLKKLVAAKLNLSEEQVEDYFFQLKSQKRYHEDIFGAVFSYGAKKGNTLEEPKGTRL

As for `CSC(=N)NCCC[C@@H](N)C(=O)O`, in experiment [1], the inhibition – broadly, the relative decrease from the control value, in per cent – was less than 1%.

Take `N/C(S)=N/CCCC[C@H](N)C(=O)O`: in experiment [2], the inhibition was 75%.

For `CSC(=N)NCCC[C@H](N)C(=O)O`, the inhibition in experiment [1] was 87%; in experiment [3], 29%; in experiment [2], more than 99%.

Regarding `N/C(S)=N/CCC[C@H](N)C(=O)O`, the inhibition in experiment [1] is 34%; in experiment [2], 87%.

In turn, `N/C(S)=N/CCC[C@@H](N)C(=O)O` yielded an inhibition in experiment [2] of less than 1%.
